According to publication PMC4538536, “In Silico-Based High-Throughput Screen for Discovery of Novel Combinations for Tuberculosis Treatment” (Antimicrobial Agents and Chemotherapy, 2015):
Converted amounts (≈) assume the structure as drawn. Like-named read-outs stand apart in the source and are kept apart here.

Tests used:
M. tuberculosis H37Rv [1] = assay: In vitro bactericidal-effect analysis (CFU enumeration of checkerboard wells); assay type: cell-based, Mycobacterium tuberculosis; conditions: single drug at its MIC (FIC of 1); positive = reduction in CFU
Protocol: For determining the extent of the bactericidal effect, sample wells which remained blue in the resazurin microtiter assay (REMA) and whose ΣFICs were within the synergistic-to-additive range (<0.7 for doublets and <1.5 for triplets) were plated on Middlebrook 7H10 agar medium and incubated at 37°C for 21 to 28 days, following which bacterial colonies were enumerated to obtain the net reduction in CFU in comparison to the counts for the untreated controls at the start of drug testing, as well as to that achieved when M. tuberculosis was exposed to each drug alone.

M. tuberculosis H37Rv [2] = assay: MIC determination, resazurin-based microplate assay; assay type: cell-based, Mycobacterium tuberculosis; conditions: Mycobacterium tuberculosis, single drug
[3] = In vivo pharmacokinetics in infected mice (plasma, LC-MS/MS); set-up: species or system BALB/c mice; conditions: mouse; for AUC(0-t) / Cmax: po, steady state, infected mice
Protocol: The drugs were formulated in 0.5% hydroxypropyl methyl cellulose (HPMC)–0.1% Tween 80 suspensions as 3- or 4-drug combinations. Formulations were prepared by weighing and adding each compound to the bottle, according to the design. Formulation vehicle was added, and the suspension was stirred overnight. Only uniform suspensions were used, while those that precipitated were abandoned. Formulations were prepared every week, and compound stability was estimated at the end of the week. Pharmacokinetics (PK) analysis was performed on infected mice on the 20th day of dosing. Blood samples were collected from each mouse at 0.5, 2, 4, 6, and 24 h after compound administration. Blood samples of about 30 μl were collected from mice in all groups by serial sampling via the saphenous vein into Microvette CB300 tubes (Starstedt, Germany) coated with EDTA, and plasma (10 μl) was separated following centrifugation. Plasma samples were stored at –20°C until analysis using liquid chromatography-tandem mass spectrometry (LC-MS/MS).
A 1-mg/ml stock solution of each compound was prepared in dimethyl sulfoxide (DMSO) for all of the analytes except PZA and LZD, for which the stock solution was 10 mg/ml in DMSO, and RIF, for which the stock solution was prepared in 50% acetonitrile in water. Three different sets of calibration standard (CS) combinations were prepared by 2-fold dilution of the stock solutions. CS set 1 contained analytes CLO, BDQ, PA824, PZA, and SQ109, CS set 2 contained analytes BTZ043, MXF, THI, EMB, and PZA, and CS set 3 contained LZD, INH, RIF, and PZA. A 16-point calibration curve was utilized for all analytes, and the standard curves ranged from 0.0005 to 20 μg/ml except for PZA and LZD, for which the standard curve range was 0.006 to 200 μg/ml. Plasma samples were precipitated by adding chilled acetonitrile (1:10, vol/vol) containing carbamazepine as an internal standard (10 ng/ml). Samples were vortexed and then centrifuged at 4,000 rpm for 30 min at 10°C. The resulting supernatant was mixed with the mobile phase (50% acetonitrile in water with 0.1% formic acid). Five microliters of the sample was injected on to a liquid chromatographic system (Acquity ultraperformance liquid chromatography [UPLC] system, Waters, Milford, MA) coupled to a triple-quadrupole mass spectrometer (Xevo TQ-S; Waters, Milford, MA). Samples were separated on an LC column (ACE 3 C18, 50 by 4.6 mm, 3 μm particle size; Advanced Chromatography Technologies, Aberdeen, Scotland) by isocratic elution with 40 parts of 20 mM ammonium formate containing 0.1% (vol/vol) formic acid and 60 parts of acetonitrile at a flow rate of 0.5 ml/min with a run time of 4 min. Samples were acquired in positive ion mode and detected by multiple reaction monitoring (MRM). The concentrations of the analyte were determined from a standard curve obtained by plotting known concentrations of the analyte against peak area ratios (analyte/internal standard peak response).
PK analyses of the plasma concentration-time relationships were performed with Phoenix software (version 6.2; Pharsight, USA). A noncompartmental analysis program, model 200, was used to calculate PK parameters. The maximum concentration of drug in plasma (Cmax), time to Cmax (Tmax), elimination half-life (t1/2), and area under the concentration-time curve (AUC) from time zero to infinity (AUC0–∞) were estimated. AUC was computed using the trapezoidal rule (linear up and log down), and the AUC0–∞ was considered only when the extrapolated AUC was not more than 20% of the original value. A minimum of three sample points in the terminal slope were used to calculate half-life.

[4] = tested individually; SQ109 at 25 mg/kg of body weight, EMB at 100-mg/kg dose; cited from earlier work

In the case of CC[C@@H](CO)NCCN[C@@H](CC)CO [Ethambutol], the “ΔLog10 CFU/ml at the MIC” value (M. tuberculosis H37Rv [1]) is reported as 1.40 Log10 CFU/ml, the MIC (M. tuberculosis H37Rv [2]) is reported as 19.6 µM (≈ 4.01 µg/mL) and the AUC ([3]; BALB/c, plasma, oral, SQ109 25 mg/kg, EMB 100 mg/kg, in 3- and 4-drug combinations, read-out: observed AUC in combinations) is reported as 4000 to 9900 ng·h/mL. For the same compound, the AUC(0-t) ([3]; BALB/c, plasma, 25 mg/kg, Group 5 triplet EMB 100/BDQ 25/SQ109 25 mg/kg oral, read-out: AUC0-24 in Triplet) was 4100 ± 1400 ng·h/mL, the Cmax ([3]; BALB/c, plasma, 25 mg/kg, Group 5 triplet EMB 100/BDQ 25/SQ109 25 mg/kg oral, read-out: Cmax in Triplet) was 1300 ± 600 ng/mL and the AUC(0-t) ([3]; BALB/c, plasma, 100 mg/kg, Group 8 triplet PA824 50/BDQ 25/EMB 100 mg/kg oral, read-out: AUC0-24 in Triplet) was 9900 ± 1600 ng·h/mL. For the same compound, the Cmax ([3]; BALB/c, plasma, 100 mg/kg, Group 8 triplet PA824 50/BDQ 25/EMB 100 mg/kg oral, read-out: Cmax in Triplet) was 2700 ± 200 ng/mL, the AUC(0-t) ([3]; BALB/c, plasma, 100 mg/kg, Ref. regimen triplet INH 30/RIF 10/EMB 100 mg/kg oral, read-out: AUC0-24 in Triplet) was 7900 ± 2800 ng·h/mL and the Cmax ([3]; BALB/c, plasma, 100 mg/kg, Ref. regimen triplet INH 30/RIF 10/EMB 100 mg/kg oral, read-out: Cmax in Triplet) was 2200 ± 500 ng/mL. The AUC(0-t) ([3]; BALB/c, plasma, 130 mg/kg, Group 9 triplet EMB 100/SQ109 25/LZD 130 mg/kg oral, read-out: AUC0-24 in Triplet) was 9600 ± 1600 ng·h/mL, the Cmax ([3]; BALB/c, plasma, 130 mg/kg, Group 9 triplet EMB 100/SQ109 25/LZD 130 mg/kg oral, read-out: Cmax in Triplet) was 1100 ± 200 ng/mL and the AUC(0-t) ([3]; BALB/c, plasma, 150 mg/kg, Group 5 quartet EMB 100/BDQ 25/SQ109 25/PZA 150 mg/kg oral, read-out: AUC0-24 in Quartet) was 4000 ± 1100 ng·h/mL. The Cmax ([3]; BALB/c, plasma, 150 mg/kg, Group 5 quartet EMB 100/BDQ 25/SQ109 25/PZA 150 mg/kg oral, read-out: Cmax in Quartet) was 1200 ± 500 ng/mL, the AUC(0-t) ([3]; BALB/c, plasma, 150 mg/kg, Group 8 quartet PA824 50/BDQ 25/EMB 100/PZA 150 mg/kg oral, read-out: AUC0-24 in Quartet) was 5700 ± 1100 ng·h/mL and the Cmax ([3]; BALB/c, plasma, 150 mg/kg, Group 8 quartet PA824 50/BDQ 25/EMB 100/PZA 150 mg/kg oral, read-out: Cmax in Quartet) was 1500 ± 300 ng/mL. The AUC(0-t) ([3]; BALB/c, plasma, 150 mg/kg, Ref. regimen quartet INH 30/RIF 10/EMB 100/PZA 150 mg/kg oral, read-out: AUC0-24 in Quartet) was 6600 ± 1800 ng·h/mL, the Cmax ([3]; BALB/c, plasma, 150 mg/kg, Ref. regimen quartet INH 30/RIF 10/EMB 100/PZA 150 mg/kg oral, read-out: Cmax in Quartet) was 1700 ± 600 ng/mL and the “plasma exposure in combination compared with individual (reported) exposure” value ([3]; in vivo) was “lower”. The “reported AUC” value [4] was 28000 ng·h/mL.
